Patent publication US6548449B1, “Substituted phenyluracils with herbicidal effect” (Bayer Aktiengesellschaft, priority 1998, dated 2003)

Experiments:
[1] = test system: weeds; test: Post-emergence test, activity against weeds; format: in vivo; conditions: test plants of a height of 5-15 cm sprayed, rated after three weeks vs untreated control
Experimental: (§1) Solvent: 5 parts by weight of acetone
(§2) Emulsifier: 1 part by weight of alkylaryl polyglycol ether
To produce a suitable preparation of active compound, 1 part by weight of active compound is mixed with the stated amount of solvent, the stated amount of emulsifiers is added and the concentrate is diluted with water to the desired concentration.
Test plants of a height of 5-15 cm are sprayed with the preparation of active compound such that the particular amounts of active compound are employed per unit area. The concentration of the spray liquor is chosen so that the particular amounts of active compound desired are applied in 1000 l of water/ha.
(§3) After three weeks, the degree of damage to the plants is rated in % damage in comparison to the development of the untreated control.
(§4) 0%=no effect (like untreated control)

[2] = test system: weeds; test: Pre-emergence test, activity against weeds; format: in vivo; conditions: soil sprayed about 24 hours after sowing, rated after three weeks vs untreated control
Experimental: as §1, §2
(§5) To produce a suitable preparation of active compound, 1 part by weight of active compound is mixed with the stated amount of solvent, the stated amount of emulsifier is added and the concentrate is diluted with water to the desired concentration.
(§6) Seeds of the test plants are sown in normal soil. After about 24 hours, the soil is sprayed with the preparation of active compounds such that the particular amounts of active compound desired are applied per unit area. The concentration of the spray liquor is chosen so that the particular amounts of active compound desired are applied in 1000 l of water/ha.
as §3, §4

[3] = test system: crop plants, such as, for example, barley and cotton; test: Pre-emergence test, tolerance by crop plants; format: in vivo; conditions: rated after three weeks
Experimental: as §1, §2, §5, §6, §3, §4

Row | Compound | melting point [°C] | activity against weeds (degree of damage to the plants) [1] | activity against weeds (degree of damage to the plants) [2] | tolerance by crop plants [3]
1 | Cn1c(C(F)(F)F)cc(=O)n(-c2ccc(OCc3ccc(Cl)c(N)c3)cc2F)c1=O [Example 4, 1-[2-fluoro-4-(3-amino-4-chloro-benzyloxy)-phenyl]-3-methyl-4-trifluoromethyl-3,6-dihydro-2,6-dioxo-1 (2H)-pyrimidine] | 148 | very strong activity |  | 
2 | CCS(=O)(=O)Nc1cc(COc2ccc(-n3c(=O)cc(C(F)(F)F)n(C)c3=O)c(F)c2)ccc1Cl [Example 5, 1-[2-fluoro-4-(4-chloro-3-ethylsulphonylamino-benzyloxy)-phenyl]-3-methyl-4-trifluoromethyl-3,6-dihydro-2,6-dioxo-1(2H)-pyrimidine] | 151 | very strong activity | very strong activity | tolerated well

Now from value to compound, other results behind:

Row | melting point [°C] | Compound | activity against weeds (degree of damage to the plants) [1] | activity against weeds (degree of damage to the plants) [2] | tolerance by crop plants [3]
3 | 165 | O=c1cc(C(F)(F)F)[nH]c(=O)n1-c1ccc(OCc2ccc(Cl)c([N+](=O)[O-])c2)cc1F [Example 1, 1-[2-fluoro-4-(4-chloro-3-nitro-benzyloxy)-phenyl]-4-trifluoromethyl-3,6-dihydro-2,6-dioxo-1(2H)-pyrimidine] |  |  | 
4 | 133 | Cn1c(C(F)(F)F)cc(=O)n(-c2ccc(OCc3ccc(Cl)c([N+](=O)[O-])c3)cc2F)c1=O [Example 2, 1-[2-fluoro-4-(4-chloro-3-nitro-benzyloxy)-phenyl]-3-methyl-4-trifluoromethyl-3,6-dihydro-2,6-dioxo-1 (2H)-pyrimidine] | very strong activity |  | 
5 | 185 | Nn1c(C(F)(F)F)cc(=O)n(-c2ccc(OCc3ccc(Cl)c([N+](=O)[O-])c3)cc2F)c1=O [Example 3, 3-amino-1-[2-fluoro-4-(4-chloro-3-nitro-benzyl-oxy)-phenyl]-4-trifluoromethyl-3,6-dihydro-2,6-dioxo-1(2H)-pyrimidine] | very strong activity |  | 
